Test results taken from US9695155B2, “Herbicidal substituted pyrimidinyloxy benzene compounds” (E. I. DU PONT DE NEMOURS AND COMPANY, priority 2013, dated 2017).

Columns and labels:
bluegrass [1] = test: Test D preemergence; assay type: in vivo, Poa annua; conditions: Poa annua, pre-emergence; for pest or weed control at 16 g/ha: 16 g ai/ha, scale 0 (no effect) to 100 (complete control), read-out: Plant response rating, Bluegrass; for pest or weed control at 31 g/ha: 31 g ai/ha; for pest or weed control at 31 g/ha / pest or weed control at 62 g/ha / pest or weed control at 125 g/ha: scale 0-100, read-out: Plant response rating, Bluegrass; for pest or weed control at 62 g/ha: 62 g ai/ha; for pest or weed control at 125 g/ha: 125 g ai/ha
Method in brief: (§1)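 Seeds sown in silt loam soil got preemergence sprays; plants in peat/vermiculite potting medium were sprayed postemergence at 2–18 cm (1- to 4-leaf stage). Chemicals were formulated in a non-phytotoxic solvent mixture with surfactant. After 7 to 21 days in a controlled environment, injury was rated visually versus controls, 0 (no effect) to 100 (complete control).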

bromegrass, downy = test: Test D preemergence; assay type: in vivo, Bromus tectorum; conditions: Bromus tectorum, pre-emergence; for pest or weed control at 16 g/ha: 16 g ai/ha, scale 0 (no effect) to 100 (complete control), read-out: Plant response rating, Bromegrass, Downy; for pest or weed control at 31 g/ha: 31 g ai/ha; for pest or weed control at 31 g/ha / pest or weed control at 62 g/ha / pest or weed control at 125 g/ha: scale 0-100, read-out: Plant response rating, Bromegrass, Downy; for pest or weed control at 62 g/ha: 62 g ai/ha; for pest or weed control at 125 g/ha: 125 g ai/ha
Method in brief: as §1

field violet [2] = test: Test D preemergence; assay type: in vivo, Viola arvensis; conditions: Viola arvensis, pre-emergence; for pest or weed control at 16 g/ha: 16 g ai/ha, scale 0 (no effect) to 100 (complete control), read-out: Plant response rating, Field Violet; for pest or weed control at 31 g/ha: 31 g ai/ha; for pest or weed control at 31 g/ha / pest or weed control at 62 g/ha / pest or weed control at 125 g/ha: scale 0-100, read-out: Plant response rating, Field Violet; for pest or weed control at 62 g/ha: 62 g ai/ha; for pest or weed control at 125 g/ha: 125 g ai/ha
Method in brief: as §1

deadnettle = test: Test D preemergence; assay type: in vivo, Lamium amplexicaule; conditions: Lamium amplexicaule, pre-emergence; for pest or weed control at 16 g/ha: 16 g ai/ha, scale 0 (no effect) to 100 (complete control), read-out: Plant response rating, Deadnettle; for pest or weed control at 31 g/ha: 31 g ai/ha; for pest or weed control at 31 g/ha / pest or weed control at 62 g/ha / pest or weed control at 125 g/ha: scale 0-100, read-out: Plant response rating, Deadnettle; for pest or weed control at 62 g/ha: 62 g ai/ha; for pest or weed control at 125 g/ha: 125 g ai/ha
Method in brief: as §1

wild radish = test: Test D preemergence; assay type: in vivo, Raphanus raphanistrum; conditions: Raphanus raphanistrum, pre-emergence; for pest or weed control at 16 g/ha: 16 g ai/ha; for pest or weed control at 16 g/ha / pest or weed control at 31 g/ha: scale 0 (no effect) to 100 (complete control), read-out: Plant response rating, Radish, Wild; for pest or weed control at 31 g/ha: 31 g ai/ha; for pest or weed control at 62 g/ha: 62 g ai/ha; for pest or weed control at 62 g/ha / pest or weed control at 125 g/ha: scale 0-100, read-out: Plant response rating, Radish, Wild; for pest or weed control at 125 g/ha: 125 g ai/ha
Method in brief: as §1

bluegrass [3] = test: Test D postemergence; assay type: in vivo, Poa annua; conditions: Poa annua, post-emergence, Postemergence, scale 0 to 100 (0 no effect, 100 complete control), read-out: Plant response rating, Bluegrass; for pest or weed control at 16 g/ha: 16 g ai/ha; for pest or weed control at 31 g/ha: 31 g ai/ha; for pest or weed control at 62 g/ha: 62 g ai/ha; for pest or weed control at 125 g/ha: 125 g ai/ha
Method in brief: as §1

field violet [4] = test: Test D postemergence; assay type: in vivo, Viola arvensis; conditions: Viola arvensis, post-emergence; for pest or weed control at 16 g/ha: 16 g ai/ha, scale 0-100, read-out: Plant response rating, Field Violet; for pest or weed control at 31 g/ha: 31 g ai/ha; for pest or weed control at 31 g/ha / pest or weed control at 62 g/ha / pest or weed control at 125 g/ha: scale 0 to 100 (0 no effect, 100 complete control), read-out: Plant response rating, Field Violet; for pest or weed control at 62 g/ha: 62 g ai/ha; for pest or weed control at 125 g/ha: 125 g ai/ha
Method in brief: as §1

green foxtail = test: Test D postemergence; assay type: in vivo, Setaria viridis; conditions: Setaria viridis, post-emergence; for pest or weed control at 16 g/ha: 16 g ai/ha, scale 0-100, read-out: Plant response rating, Foxtail, Green; for pest or weed control at 31 g/ha: 31 g ai/ha; for pest or weed control at 31 g/ha / pest or weed control at 62 g/ha / pest or weed control at 125 g/ha: scale 0 to 100 (0 no effect, 100 complete control), read-out: Plant response rating, Foxtail, Green; for pest or weed control at 62 g/ha: 62 g ai/ha; for pest or weed control at 125 g/ha: 125 g ai/ha
Method in brief: as §1

kochia = test: Test D postemergence; assay type: in vivo, Kochia scoparia; conditions: Bassia scoparia, post-emergence; for pest or weed control at 16 g/ha: 16 g ai/ha, scale 0-100, read-out: Plant response rating, Kochia; for pest or weed control at 31 g/ha: 31 g ai/ha; for pest or weed control at 31 g/ha / pest or weed control at 62 g/ha / pest or weed control at 125 g/ha: scale 0 to 100 (0 no effect, 100 complete control), read-out: Plant response rating, Kochia; for pest or weed control at 62 g/ha: 62 g ai/ha; for pest or weed control at 125 g/ha: 125 g ai/ha
Method in brief: as §1

wild mustard = test: Test D postemergence; assay type: in vivo, Sinapis arvensis; conditions: Brassica, post-emergence; for pest or weed control at 16 g/ha: 16 g ai/ha, scale 0-100, read-out: Plant response rating, Mustard, Wild; for pest or weed control at 31 g/ha: 31 g ai/ha; for pest or weed control at 31 g/ha / pest or weed control at 62 g/ha / pest or weed control at 125 g/ha: scale 0 to 100 (0 no effect, 100 complete control), read-out: Plant response rating, Mustard, Wild; for pest or weed control at 62 g/ha: 62 g ai/ha; for pest or weed control at 125 g/ha: 125 g ai/ha
Method in brief: as §1

windgrass = test: Test D postemergence; assay type: in vivo, Apera spica-venti; conditions: Apera spica-venti, post-emergence; for pest or weed control at 16 g/ha: 16 g ai/ha, scale 0-100, read-out: Plant response rating, Windgrass; for pest or weed control at 31 g/ha: 31 g ai/ha; for pest or weed control at 31 g/ha / pest or weed control at 62 g/ha / pest or weed control at 125 g/ha: scale 0 to 100 (0 no effect, 100 complete control), read-out: Plant response rating, Windgrass; for pest or weed control at 62 g/ha: 62 g ai/ha; for pest or weed control at 125 g/ha: 125 g ai/ha
Method in brief: as §1

## FC(F)(F)COc1cnn(-c2ccccc2Oc2ncc(Cl)cn2)c1 [Compound 138, 5-chloro-2-[2-[4-(2,2,2-trifluoroethoxy)-1H-pyrazol-1-yl]phenoxy]pyrimidine]
Bluegrass [1]
  pest or weed control at 16 g/ha: 0%
  pest or weed control at 31 g/ha: 0%
  pest or weed control at 62 g/ha: 0%
  pest or weed control at 125 g/ha: 10%
bromegrass, downy
  pest or weed control at 16 g/ha: 0%
  pest or weed control at 31 g/ha: 0%
  pest or weed control at 62 g/ha: 0%
  pest or weed control at 125 g/ha: 10%
Field violet [2]
  pest or weed control at 16 g/ha: 70%
  pest or weed control at 31 g/ha: 25%
  pest or weed control at 62 g/ha: 70%
  pest or weed control at 125 g/ha: 75%
deadnettle
  pest or weed control at 16 g/ha: 5%
  pest or weed control at 31 g/ha: 5%
  pest or weed control at 62 g/ha: 20%
  pest or weed control at 125 g/ha: 30%
Wild radish
  pest or weed control at 16 g/ha: 90%
  pest or weed control at 31 g/ha: 85%
  pest or weed control at 62 g/ha: 70%
  pest or weed control at 125 g/ha: 85%
Bluegrass [3]
  pest or weed control at 16 g/ha: 0%
  pest or weed control at 31 g/ha: 5%
  pest or weed control at 62 g/ha: 5%
  pest or weed control at 125 g/ha: 10%
Field violet [4]
  pest or weed control at 16 g/ha: 25%
  pest or weed control at 31 g/ha: 50%
  pest or weed control at 62 g/ha: 65%
  pest or weed control at 125 g/ha: 75%
Green foxtail
  pest or weed control at 16 g/ha: 20%
  pest or weed control at 31 g/ha: 20%
  pest or weed control at 62 g/ha: 20%
  pest or weed control at 125 g/ha: 30%
kochia
  pest or weed control at 16 g/ha: 25%
  pest or weed control at 31 g/ha: 40%
  pest or weed control at 62 g/ha: 55%
  pest or weed control at 125 g/ha: 75%
Wild mustard
  pest or weed control at 16 g/ha: 65%
  pest or weed control at 31 g/ha: 75%
  pest or weed control at 62 g/ha: 75%
  pest or weed control at 125 g/ha: 75%
windgrass
  pest or weed control at 16 g/ha: 0%
  pest or weed control at 31 g/ha: 0%
  pest or weed control at 62 g/ha: 15%
  pest or weed control at 125 g/ha: 20%

## FC(F)(F)c1cn(-c2ccccc2Oc2ncc(Cl)cn2)nn1 [Compound 166, 5-chloro-2-[2-[4-(trifluoromethyl)-1H-1,2,3-triazol-1-yl]phenoxy]pyrimidine]
Bluegrass [1]
  pest or weed control at 16 g/ha: 5%
  pest or weed control at 31 g/ha: 20%
  pest or weed control at 62 g/ha: 65%
  pest or weed control at 125 g/ha: 100%
bromegrass, downy
  pest or weed control at 16 g/ha: 5%
  pest or weed control at 31 g/ha: 5%
  pest or weed control at 62 g/ha: 25%
  pest or weed control at 125 g/ha: 50%
Field violet [2]
  pest or weed control at 16 g/ha: 70%
  pest or weed control at 31 g/ha: 100%
  pest or weed control at 62 g/ha: 100%
  pest or weed control at 125 g/ha: 100%
deadnettle
  pest or weed control at 16 g/ha: 70%
  pest or weed control at 31 g/ha: 75%
  pest or weed control at 62 g/ha: 100%
  pest or weed control at 125 g/ha: 100%
Wild radish
  pest or weed control at 16 g/ha: 55%
  pest or weed control at 31 g/ha: 80%
  pest or weed control at 62 g/ha: 100%
  pest or weed control at 125 g/ha: 100%
Bluegrass [3]
  pest or weed control at 16 g/ha: 20%
  pest or weed control at 31 g/ha: 40%
  pest or weed control at 62 g/ha: 55%
  pest or weed control at 125 g/ha: 65%
Field violet [4]
  pest or weed control at 16 g/ha: 60%
  pest or weed control at 31 g/ha: 65%
  pest or weed control at 62 g/ha: 70%
  pest or weed control at 125 g/ha: 85%
Green foxtail
  pest or weed control at 16 g/ha: 10%
  pest or weed control at 31 g/ha: 15%
  pest or weed control at 62 g/ha: 20%
  pest or weed control at 125 g/ha: 35%
kochia
  pest or weed control at 16 g/ha: 65%
  pest or weed control at 31 g/ha: 65%
  pest or weed control at 62 g/ha: 90%
  pest or weed control at 125 g/ha: 95%
Wild mustard
  pest or weed control at 16 g/ha: 75%
  pest or weed control at 31 g/ha: 80%
  pest or weed control at 62 g/ha: 85%
  pest or weed control at 125 g/ha: 100%
windgrass
  pest or weed control at 16 g/ha: 15%
  pest or weed control at 31 g/ha: 25%
  pest or weed control at 62 g/ha: 35%
  pest or weed control at 125 g/ha: 55%
